# Reference: article PMC11990662, “Synthesis and Evaluation of the Antiproliferative Activity of the Derivatives of 3,5-Diaryl-3,4-dihydro-2H-pyrrole-2-carboxylic Acids” (Molecules, 2025)
# Columns and labels:
# [1] = system: HepG2 (hepatocellular carcinoma); test: MTT antiproliferative assay, HepG2; format: cell-based, human; conditions: 72 h
# Experimental: (§1) Antiproliferative activity of some compounds was evaluated on cell cultures derived from MDA-MB-231 (triple negative human breast carcinoma). […] This finding allowed us to further investigate the antiproliferative activity of selected compounds on additional tumor cell lines. We studied the influence of the stereochemical orientation of the substituents at C2 and C3 in substituted 3,4-dihydro-2H-pyrrole-2-carbonitriles. The antiproliferative activity of single diastereomers of some nitriles 4 and the amide cis-6m were assessed on multiple human cancer cell lines via the MTT assay. For these experiments, the following human cell lines were used: MCF-7 (luminal type A breast carcinoma), MD-MBA-231, H1299 (non-small-cell lung carcinoma cells), A549 (lung alveolar adenocarcinoma), HeLa (cervical cancer), HepG2 (hepatocellular carcinoma), HT-29 (colorectal adenocarcinoma) and PC3 (prostate adenocarcinoma). As a model of normal tissue, we used MCF-10A (non-tumorigenic epithelial cells of mammary gland). Table 5 and Table 6 present the values of concentration that inhibits cell viability to 50% (IC50) and selectivity index (SI = IC50(MCF-10A)/IC50(tumor cell line)).
# (§2) The antiproliferative activity testing was performed on cell cultures from several human cancer cell lines the MTT-dye reduction assay, described by Mosmann. Cell lines were obtained from the American Type Cultures Collection (ATCC, Manassas, VA, USA). In this article we used the following cell lines: MCF-10A (ATCC, CRL-10317™) Non-tumorigenic epithelial cells of mammary gland, MCF-7 (ATCC, HTB-22™) Luminal type A breast carcinoma, MDA-MB-231 (ATCC, HTB-26™) Triple negative breast carcinoma, H1299 (ATCC, CRL-5803™) Non-small-cell lung carcinoma, A549 (ATCC, CRM-CCL-185™) Llung alveolar adenocarcinoma, HeLa (ATCC, CCL-2™) Cervical cancer, Hep G2 (ATCC, HB-8065™) Hepatocellular carcinoma, HT-29 (ATCC, HTB-38™) Colorectal adenocarcinoma, PC-3 (ATCC, CRL-1435™) Prostate adenocarcinoma. The cells were cultured in a cell culture laboratory at the Institute of Experimental Morphology, Pathology and Anthropology with a Museum—Bulgarian Academy of Sciences. They were cultured in Dulbecco’s Modified Eagle’s medium, high glucose (DMEM 4.5 g/L glucose), supplied with 10% fetal bovine serum and antibiotics in usual concentrations in a humidified atmosphere with 5% CO2 at 37.5 °C. In the case of MCF-10A cells, epidermal growth factor, insulin and cholera toxin were added in concentrations corresponding to the cell bank instructions. Cells were plated at a density of 1 × 10^3 cells per well in a 96-well flat-bottomed microplates and allowed to adhere for 24 h before treatment with the test compounds, dissolved in DMSO, and further diluted in culture medium to the final concentrations. A concentration ranges from 5 µM to 4.1 mM was tested over an incubation period of 72 h. Cisplatin (Sigma-Aldrich) was used as a positive control in a concentration range 50 nM to 100 µM. All experiments were performed in triplicates. The MTT-formazan absorption was measured using a microplate reader (TECAN, Sunrise^TM, Groedig/Salzburg, Austria) at 570 nm. Antiproliferative activities were expressed as IC50 values (concentrations required for 50% inhibition of cell growth), calculated using non-linear regression analysis (GraphPad Prizm8 Software). The statistical analysis involved One-way ANOVA followed by Bonferroni’s post hoc test p < 0.05 was accepted as the lowest level of statistical significance.
# [2] = system: A549 (lung alveolar adenocarcinoma); test: MTT antiproliferative assay, A549; format: cell-based, human; conditions: 72 h
# Experimental: as §1, §2
# [3] = system: MDA-MB-231 (triple negative human breast carcinoma); test: MTT antiproliferative assay, MDA-MB-231; format: cell-based; conditions: for IC50: MDA-MB-231, MTT, 72 h; for antiproliferative activity (in words): MDA-MB-231, preliminary experiments
# Experimental: as §1, §2
# [4] = system: MCF-7 (luminal type A breast carcinoma); test: MTT antiproliferative assay, MCF-7; format: cell-based, human; conditions: MCF-7, MTT, 72 h
# Experimental: as §1, §2
# [5] = system: HT-29 (colorectal adenocarcinoma); test: MTT antiproliferative assay, HT-29; format: cell-based, human; conditions: HT-29, MTT, 72 h
# Experimental: as §1, §2
# [6] = system: HeLa (cervical cancer); test: MTT antiproliferative assay, HeLa; format: cell-based, human; conditions: 72 h
# Experimental: as §1, §2
# [7] = system: PC3 (prostate adenocarcinoma); test: MTT antiproliferative assay, PC3; format: cell-based, human; conditions: 72 h
# Experimental: as §1, §2
# [8] = system: H1299 (non-small-cell lung carcinoma cells); test: MTT antiproliferative assay, H1299; format: cell-based, human
# Experimental: as §1, §2
# [9] = system: MCF-10A (non-tumorigenic epithelial cells of mammary gland); test: MTT antiproliferative assay, MCF-10A; format: cell-based, human; conditions: 72 h
# Experimental: as §1, §2
Compound,IC50 ([1]; Homo sapiens),IC50 ([2]; Homo sapiens),IC50 ([3]; Homo sapiens),"IC50 ([4]; Homo sapiens, MCF7)",IC50 ([5]; Homo sapiens),IC50 ([6]; Homo sapiens),IC50 ([7]; Homo sapiens),"IC50 ([8]; Homo sapiens, NCI-H1299, 72 h)",IC50 ([9]; Homo sapiens),other results
COc1ccc(C2=N[C@@H](C#N)[C@@H](c3ccccc3)C2)cc1 (racemic) [cis-4e],554 ± 34 µM,341 ± 26 µM,> 3620 µM,1770 ± 232 µM,308 ± 8 µM,158 ± 6.5 µM,478 ± 58 µM,840 ± 43 µM,427 ± 12 µM,–
N#C[C@@H]1N=C(c2ccccc2)C[C@@H]1c1cccnc1 (racemic) [cis-4h],3000 ± 107 µM,311 ± 19 µM,> 4110 µM,1380 ± 255 µM,1640 ± 132 µM,2220 ± 136 µM,1920 ± 70 µM,2980 ± 62 µM,2280 ± 178 µM,–
Cc1ccc(C2=N[C@@H](C#N)[C@@H](c3ccccc3)C2)cc1 (racemic) [cis-4k],235 ± 15 µM,82.2 ± 5.8 µM,2560 ± 107 µM,374 ± 6 µM,853 ± 46 µM,169 ± 10 µM,297 ± 25 µM,205 ± 6 µM,104 ± 6 µM,–
COc1cc(O)c(C2=N[C@@H](C#N)[C@@H](c3ccc(C)c(Cl)c3)C2)c(OC)c1 (racemic) [cis-4n],–,–,75.8 µM,–,–,–,–,–,–,–
COc1cc(O)c(C2=N[C@@H](C#N)[C@@H](c3ccc(C)c(Br)c3)C2)c(OC)c1 (racemic) [cis-4o],–,–,35.9 µM,–,–,–,–,–,–,–
COc1cc(O)c(C2=N[C@@H](C#N)[C@H](c3ccc(C)c(F)c3)C2)c(OC)c1 (racemic) [trans-4m],44.6 ± 2.8 µM,32.2 ± 1.1 µM,717 ± 73 µM,149 ± 12 µM,28.1 ± 2 µM,1170 ± 42 µM,44.3 ± 5.4 µM,36.4 ± 2 µM,79.3 ± 2.5 µM,–
COc1cc(O)c(C2=N[C@@H](C#N)[C@H](c3ccc(C)c(Cl)c3)C2)c(OC)c1 (racemic) [trans-4n],–,–,–,–,–,–,–,–,–,antiproliferative activity (in words) [3]: very poor activity
COc1cc(O)c(C2=N[C@@H](C#N)[C@H](c3ccc(C)c(Br)c3)C2)c(OC)c1 (racemic) [trans-4o],–,–,–,–,–,–,–,–,–,antiproliferative activity (in words) [3]: very poor activity
"COc1cc(O)c(C2=N[C@@H](C#N)[C@H](c3ccc(C)c(F)c3)C2)c(OC)c1 (relative stereo) [cis-4m, rel-(2R,3S)-3-(3-fluoro-4-methylphenyl)-5-(2-hydroxy-4,6-dimethoxyphenyl)-3,4-dihydro-2H-pyrrole-2-carbonitrile]",–,–,–,–,–,–,–,–,–,IC50 [1]: 117 ± 4.8 µM; IC50 [2]: 97.6 ± 13 µM; IC50 [3]: 16 ± 0.7 µM; IC50 [4]: 185 ± 26 µM; IC50 [5]: 19.6 ± 1.8 µM; IC50 [6]: 224 ± 15 µM; IC50 [7]: 115 ± 4.8 µM; IC50 ([8]; 72 h): 25.4 ± 2.3 µM; IC50 [9]: 170 ± 12 µM
"Cc1ccc(C2=N[C@@H](C#N)[C@H](c3ccccc3)C2)cc1 (relative stereo) [trans-4k, rel-(2R,3S)-5-(4-methylphenyl)-3-phenyl-3,4-dihydro-2H-pyrrole-2-carbonitrile]",159 ± 4.6 µM,11.7 ± 0.8 µM,313 ± 20 µM,568 ± 57 µM,136 ± 7.7 µM,84.1 ± 2.3 µM,121 ± 13 µM,354 ± 15 µM,182 ± 5.8 µM,–
"N.N.[Cl][Pt][Cl] [Cisplatin, reference compound]",–,–,–,–,–,–,–,–,–,IC50 [1]: 19.1 ± 0.4 µM; IC50 [2]: 38.6 ± 4.7 µM; IC50 [3]: 1.8 ± 0.1 µM; IC50 [4]: 45.8 ± 3.2 µM; IC50 [5]: 8.2 ± 0.3 µM; IC50 [6]: 19.6 ± 3.2 µM; IC50 [7]: 3.4 ± 0.5 µM; IC50 ([8]; 72 h): 5 ± 0.9 µM; IC50 [9]: 23.2 ± 1.4 µM
COc1cc(O)c(C2=N[C@@H](C(N)=O)[C@@H](c3ccc(C)c(F)c3)C2)c(OC)c1 [cis-6m],117 ± 6.2 µM,136 ± 5.4 µM,1990 ± 40 µM,923 ± 37 µM,64.3 ± 4.8 µM,1180 ± 37 µM,125 ± 7.6 µM,1880 ± 51 µM,429 ± 28 µM,–
